Data published in patent EP1457483A1, “Cationic lipids with serine backbone” (Ruhr-Universität Bochum, priority 2003, dated 2004).

Assays:
primary dendritic cells = assay: Transfection of primary dendritic cells with lipoplexes (luciferase activity per protein content); assay type: cell-based, human
Experimental: Cell culture: SV40 transformed African green monkey kidney cell line COS-7 (ATCC CRL-1651) was routinely passaged in DMEM (GIBCO BRL, Karlsruhe, Germany), respectively, supplemented with 1% L-glutamin solution (100x), 1% Penicillin/Streptomycin solution (100x) (GIBCO BRL, Karlsruhe, Germany), and 10% FCS (BioWhittaker, Verviers, Belgium) at 37°C with 5% CO2 in humidified atmosphere. For the screening cells were maintained in 96-well culture plates (Greiner, Frickenhausen, Germany) in 100 μl DMEM, 10 % FCS, 1 % Penicillin-streptomycin in a humidified atmosphere at 37 °C/5 % CO2. 24 h prior to transfection, the cells were seeded into the microtiter plate at 10,000 cells per well to reach a confluency of 50 % at the time of transfection. […] After 5-6 days non-adherent cells were collected and purity of DCs was determined by FACS analysis using a FACSort flow cytometer (Becton Dickinson, Mountain View, CA) and the CellQuest software for data processing as recently described (Jantscheff, P. et al., J. Immunol. Methods 163(1):91-7 (1993)). […] Binding specificity was determined using IgG1 (MOPC-21), IgG2a (UPC-10), or IgG2b (MOPC-141) isotype control mAbs (SIGMA-ALDRICH Chemie, Buchs, Switzerland). […]

COS-7 cells = assay: Automated lipofection screening: GFP-luciferase reporter gene transfer (luciferase activity per protein content); assay type: cell-based, African green monkey; details: best lipid/DNA charge ratio of 2.5, determined in each run, point is thousands separator
Experimental: Screening the combinatorial lipid library for lipofection properties: Goal of this first step was to compare transfection efficiency of these structurally related cationic lipids with systematically modified hydrocarbon chain compositions for the development of suitable lipofection reagents and protocols and to study the relationship between structure and transfection efficiency of this new class of cationic lipids for gene transfer. All lipids (MS-1 to MS-50, table 1) were tested using a standard protocol: From each lipid, twenty four different lipoplexes were formed containing either no helper lipid or the helper lipids DOPE and CHOL at molar amounts (1:0.5), respectively, using eight different lipid:DNA-charge ratios (LDR) from 1:1 - 15:1, resulting in a lipofection profile for each lipid. The COS-7 cell-line was used for this lipofection study since COS-7 is easy to transfect and differences between the lipids are easy to identify.
Cell culture: SV40 transformed African green monkey kidney cell line COS-7 (ATCC CRL-1651) was routinely passaged in DMEM (GIBCO BRL, Karlsruhe, Germany), respectively, supplemented with 1% L-glutamin solution (100x), 1% Penicillin/Streptomycin solution (100x) (GIBCO BRL, Karlsruhe, Germany), and 10% FCS (BioWhittaker, Verviers, Belgium) at 37°C with 5% CO2 in humidified atmosphere. For the screening cells were maintained in 96-well culture plates (Greiner, Frickenhausen, Germany) in 100 µl DMEM, 10 % FCS, 1 % Penicillin-streptomycin in a humidified atmosphere at 37 °C/5 % CO2. 24 h prior to transfection, the cells were seeded into the microtiter plate at 10,000 cells per well to reach a confluency of 50 % at the time of transfection. Dendritic cells: Dendritic cells (DC) were derived from highly purified circulating CD14(+) monocytes: In a first step, peripheral blood mononuclear leukocytes (PBL) from healthy control persons were isolated by Ficoll-Paque (Pharmacia Biotech AB, Uppsala, Sweden) density centrifugation. The following immunomagnetic purification of the monocytes from PBL was performed using CD14 Microbeads and MiniMACS high gradient magnetic separation columns (Miltenyi Biotech, Bergisch Gladbach, Germany) according to manufacturer's instructions. Isolated monocytes (5 x 10^5/well) were cultured in RPMI supplemented with 10 % FCS, or serum-free Macrophage-SFM medium (GIBCO BRL, Karlsruhe, Germany) supplemented with human recombinant GM-CSF (0.05µg/ml) and IL-4 (0.025µg/ml) (PromoCell, Heidelberg, Germany) in 6-well plates. Aliquots of the cells were reanalyzed by FACS with anti-CD14 mAbs (Pharmingen, San Diego, CA). After 5-6 days non-adherent cells were collected and purity of DCs was determined by FACS analysis using a FACSort flow cytometer (Becton Dickinson, Mountain View, CA) and the CellQuest software for data processing as recently described (Jantscheff, P. et al., J. Immunol. Methods 163(1):91-7 (1993)).

## CCCCCCCC/C=C\CCCCCCCC(=O)OCC(C[N+](C)(C)C)OC(=O)CCCCCCC/C=C\CCCCCCCC (stereo not drawn) [DOTAP, N-[1-(2,3-dioleoyloxy)propyl]-N,N,N-trimethylammonium methylsulfate]
Primary dendritic cells; helper lipid 1:0.5 at optimum lipid:DNA ratio, ± standard deviation (lu µg^-1 protein)
  Transfection efficiencies, RLU: 235 ± 119 RLU
Primary dendritic cells; standardized on lipofection efficiency of DOTAP-lipoplexes set to 100%
  % DOTAP: 100%
COS-7 cells
  transfection efficiency (DOTAP values): 30.838 ± 6.363 RLU
